Patent US11752122B2 (OKLAHOMA MEDICAL RESEARCH FOUNDATION, priority 2018, dated 2023)

What was measured:
[1] = tested on: ascending aortic constriction (AAC) model; experiment: Cardiac fibrosis in ascending aortic constriction (AAC) model; format: in vivo, mice; conditions: WT C57Bl/6 mice, very low concentration, preliminary unpublished data
Source text: Ascending Aortic Constriction. Ascending aortic constriction was induced by controlled constriction of the ascending aorta as described previously 26. Briefly, mice were anesthetized with 1.5% isoflurane and the ascending aorta was surgically exposed by a mid-thorax incision. A 2 7-0 suture was placed around both the aorta and an adjacent 27-gauge (0.41 mm OD) needle proximal to the origin of the innominate artery. […] Mice were sacrificed and tissues collected 1 month after the surgery.

LDLR mice on HFD = conditions: LDLR mice, very low concentration, preliminary unpublished data
Source text: Mice. Hypercholesterolemic mice deficient for low-density lipoprotein receptors (Ldlr−/−), which only express ApoB-100 (Ldlr−/−Apob100/100, LDLR), were obtained from Jackson Laboratories (B6; 129SLdlrtm1HerApobtm2Sgy/J, stock no. 003000). WT C57bl/6 mice were also obtained from the Jackson Laboratory (stock no. 000664) and served as controls. TGF-β1^platelet-KO-LDLR mice (Pf4Cre+Tgfb1f/f;Ldlr−/−Apob100/100;) and TGF-β1^flox-LDLR littermate controls (Tgfb1f/f;Ldlr−/−Apob100/100) were generated by crossing LDLR mice with Pf4Cre+;Tgfb1f/f mice, as shown in FIGS. 7A-B and Supplemental Table 5. […] The inventor crossed Tie2Cre mice (stock no. 008863, Jackson Laboratories) with tdTomato lox-stop-lox mice (stock no. 007909, Jackson Laboratories) to generate Tie2Cre;tdTomato mice that express tdTomato only under Cre activity. All mice were housed in a controlled environment (23±2° C.; 12 hours light/dark cycles) and fed either a chow diet (CD) (PicoLab® Rodent Diet 20, 5053) or a customized high fat diet (HFD) (Harlan Teklad, TD.9612102. containing 21% milk fat (MF), 1.25% Cholesterol) in powdered form in a glass jar with perforated metal strainer (DYETS, Braintree Scientific Inc.). The Oklahoma Medical Research Foundation's Institutional Animal Care and Usage Committee approved all procedures.
Experimental Design. A total of 118 LDLR (58 Males, 60 Females) and 20 WT mice (10 Males, 10 Females) were used for this study. Half of the mice (6 weeks old) were switched to HFD and maintained for up to 9 months. Progression and severity (mild/moderate/severe) of AS were monitored at 0, 3, 6 and 9 months by echocardiography using non-invasive ultrasound imaging techniques. Five mice per cage (total of 25 males, 15 females) were treated with 2% N-acetylcysteine (NAC) (Acros Organics, 160280010) in drinking water. NAC was prepared in reverse osmosis water and its pH was adjusted to 7.4 with NaOH. Water was replaced with a fresh solution every week.
Echocardiography. Mice were anesthetized with Isoflurane (3-5% inhalation) in an induction chamber. Mice that appeared to be sick due to severe stenosis or that were underweight were anesthetized using a lower isoflurane level to prevent adverse or lethal effects from the anesthetic. Once visibly anesthetized, isoflurane was reduced to 0.5%-2% and the mouse was moved from the chamber to a nose-cone on a heated platform set at 40° C. to maintain body temperature (35±2° C.). Heavier mice were maintained at higher isoflurane levels as they appeared less sensitive to its anesthetic effects. All four limbs were taped to physiological electrodes and a rectal temperature probe was inserted. Electrode gel was used to enhance the physiologic readings. To ensure accuracy of all echo measurements, physiological parameters were monitored and recordings were only taken if the heart rate was 430-550 beats per minute, respiration was 20-100 breaths per minute, and body temperature was close to 37° C. (35±2° C.).
Measurement of AS parameters using a modified view of ultrasound imaging. Echocardiography is the gold standard non-invasive method to measure AS in humans. However, the mouse heart rate is 10-times faster (500 to 600 beats per minute), making the acquisition of high-resolution images of the very thin non-diseased valves challenging. […] LVOT was measured from the long-axis view and was used to calculate AV pressure and normalize the cusp separation (Lindman et al., 2016; Meyer et al., 2012). This view was obtained by tilting the lower left corner of the platform downward by about 30° and angling the transducer up such that it interfaced with the chest cavity by about 45°.

[2] = 2007 study; cited from earlier work
mouse model = conditions: cited from earlier work

Cc1cccc(-c2nn3c(c2-c2ccnc4ccc(C(N)=O)cc24)CCC3)n1 [galunisertive]
cardiac fibrosis induced by ascending aortic constriction [1]: inhibited cardiac fibrosis
AS progression (LDLR mice on HFD): halted AS progression

CC(C)c1nc(N(C)S(C)(=O)=O)nc(-c2ccc(F)cc2)c1/C=C/[C@@H](O)C[C@@H](O)CC(=O)O [rosuvastatin]
aortic stenosis progression [2]: slowing of aortic stenosis

CC(=O)N[C@@H](CSN=O)C(=O)O [SNOAC, S-nitroso-N-acetylcysteine]
hypoxia-like response in gene expression (mouse model; in vitro and in vivo): induced a hypoxia-like response
blood pressure in the lungs and right ventricle of the heart (pulmonary artery hypertension) (mouse model; mice treated with acetylcysteine, metabolite SNOAC): increased
